Earlier results, collected in patent publication US20140073698A1 (Aventis Pharma S.A., priority 2011, published 2014).

Conditions: @pH=1; simulation input

Reference Log D: 3.16
SMILES: CC(C(=O)O)c1cccc(C(=O)c2ccccc2)c1 (stereo not shown) [Ketoprofen, 2-(3-benzoylphenyl)propionic acid]
